Earlier results on 2 compounds are cited in patent US20070044813A1, “Use of snuff for treatment of house dust mite allergy and/or cigarette smoke allergy” (priority 2005, published 2007).

The series concerns symptoms of house dust mite allergy and cigarette smoke allergy. Particulars: conventional medicaments; control the symptoms only partly.

SMILES strings stand for the structures. Counter-ions that a name gives are not always drawn.

Turning to `Clc1ccc2c(c1)CCc1cccnc1C2=C1CCNCC1` [desloratadine], the “alleviation of the symptoms” value is recorded as “around 40%”.

Take `CC(C)(C(=O)O)c1ccc(C(O)CCCN2CCC(C(O)(c3ccccc3)c3ccccc3)CC2)cc1` (centres unmarked) [fexofenadine hydrochloride]: the “alleviation of the symptoms” value is on record as “around 40%”.
